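48-hour exposure; five concentrations; linearly interpolated endpoints. At the TGI there is no net growth.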
What was measured:
Assay in all cases: inhibition of tumour cell growth, NCI panel, 48 h
EKVX NSCLC = system: EKVX NSCLC
OVCAR-3 ovarian = system: OVCAR-3 ovarian
IGROV1 ovarian = system: IGROV1 ovarian
SN12C renal = system: SN12C renal
DU-145 prostate = system: DU-145 prostate
MDA-MB-435 = system: MDA-MB-435
SF-295 CNS = system: SF-295 CNS
HCC-2998 colon = system: HCC-2998 colon
MOLT-4 leukemia = system: MOLT-4 leukemia
SF-268 CNS = system: SF-268 CNS
SK-MEL-2 melanoma = system: SK-MEL-2 melanoma
ACHN renal = system: ACHN renal
K-562 leukemia = system: K-562 leukemia
PC-3 prostate = system: PC-3 prostate
HOP-62 NSCLC = system: HOP-62 NSCLC
UACC-62 melanoma = system: UACC-62 melanoma
NCI/ADR-RES ovarian = system: NCI/ADR-RES ovarian
HT29 colon = system: HT29 colon
TK-10 renal = system: TK-10 renal
HS 578T breast = system: HS 578T breast
SW-620 colon = system: SW-620 colon
BT-549 breast = system: BT-549 breast
NCI-H460 lung = system: NCI-H460 lung
MDA-MB-231 breast = system: MDA-MB-231 breast
RXF 393 renal = system: RXF 393 renal
OVCAR-4 ovarian = system: OVCAR-4 ovarian
SNB-19 CNS = system: SNB-19 CNS
U251 CNS = system: U251 CNS
MDA-N = system: MDA-N
HCT-15 colon = system: HCT-15 colon
HL-60(TB) leukemia = system: HL-60(TB) leukemia
786-0 renal = system: 786-0 renal
COLO 205 colon = system: COLO 205 colon
OVCAR-8 ovarian = system: OVCAR-8 ovarian
NCI-H23 lung = system: NCI-H23 lung
NCI-H522 lung = system: NCI-H522 lung
A498 renal = system: A498 renal
LOX IMVI melanoma = system: LOX IMVI melanoma
UO-31 renal = system: UO-31 renal
KM12 colon = system: KM12 colon
SNB-75 CNS = system: SNB-75 CNS
CAKI-1 renal = system: CAKI-1 renal
SK-MEL-28 melanoma = system: SK-MEL-28 melanoma
MCF7 breast = system: MCF7 breast
SK-MEL-5 melanoma = system: SK-MEL-5 melanoma
UACC-257 melanoma = system: UACC-257 melanoma
MALME-3M melanoma = system: MALME-3M melanoma
OVCAR-5 ovarian = system: OVCAR-5 ovarian
HCT-116 colon = system: HCT-116 colon
NCI-H226 lung = system: NCI-H226 lung
CCRF-CEM leukemia = system: CCRF-CEM leukemia
SF-539 CNS = system: SF-539 CNS
HOP-92 NSCLC = system: HOP-92 NSCLC
RPMI-8226 leukemia = system: RPMI-8226 leukemia
M14 melanoma = system: M14 melanoma
A549 NSCLC = system: A549 NSCLC

Q: For `NC1=NC(=O)[C@H](Cc2c[nH]c3ccccc23)N1C(=O)OCc1ccccc1`, which TGI (EKVX NSCLC) is on record?
A: The TGI was over 100 µM.

Q: And the TGI (OVCAR-3 ovarian)?
A: The TGI was over 100 µM.

Q: What about the TGI (IGROV1 ovarian) of the same compound?
A: Its TGI is over 100 µM.

Q: What about the TGI (SN12C renal) of the same compound?
A: Its TGI is over 100 µM.

Q: And the TGI (DU-145 prostate)?
A: Its TGI is over 100 µM.

Q: And the TGI (MDA-MB-435)?
A: Its TGI is over 100 µM.

Q: And the TGI (SF-295 CNS)?
A: Its TGI is over 100 µM.

Q: And the TGI (HCC-2998 colon)?
A: The TGI was over 100 µM.

Q: And the TGI (MOLT-4 leukemia)?
A: Its TGI is over 100 µM.

Q: And the TGI (SF-268 CNS)?
A: Its TGI is over 100 µM.

Q: And the TGI (SK-MEL-2 melanoma)?
A: The TGI was over 100 µM.

Q: What about the TGI (ACHN renal) of the same compound?
A: The TGI was over 100 µM.

Q: What about the TGI (K-562 leukemia) of the same compound?
A: The TGI was over 100 µM.

Q: What about the TGI (PC-3 prostate) of the same compound?
A: The TGI was over 100 µM.

Q: What about the TGI (HOP-62 NSCLC) of the same compound?
A: The TGI was over 100 µM.

Q: What about the TGI (UACC-62 melanoma) of the same compound?
A: Its TGI is over 100 µM.

Q: And the TGI (NCI/ADR-RES ovarian)?
A: Its TGI is over 100 µM.

Q: And the TGI (HT29 colon)?
A: The TGI was over 100 µM.

Q: And the TGI (TK-10 renal)?
A: The TGI was over 100 µM.

Q: And the TGI (HS 578T breast)?
A: Its TGI is over 100 µM.

Q: What about the TGI (SW-620 colon) of the same compound?
A: The TGI was over 100 µM.

Q: What about the TGI (BT-549 breast) of the same compound?
A: The TGI was over 100 µM.

Q: What about the TGI (NCI-H460 lung) of the same compound?
A: Its TGI is over 100 µM.

Q: What about the TGI (MDA-MB-231 breast) of the same compound?
A: The TGI was over 100 µM.

Q: What about the TGI (RXF 393 renal) of the same compound?
A: The TGI was over 100 µM.

Q: And the TGI (OVCAR-4 ovarian)?
A: The TGI was over 100 µM.

Q: What about the TGI (SNB-19 CNS) of the same compound?
A: The TGI was over 100 µM.

Q: What about the TGI (U251 CNS) of the same compound?
A: The TGI was over 100 µM.

Q: And the TGI (MDA-N)?
A: The TGI was over 100 µM.

Q: And the TGI (HCT-15 colon)?
A: The TGI was over 100 µM.

Q: What about the TGI (HL-60(TB) leukemia) of the same compound?
A: Its TGI is over 100 µM.

Q: And the TGI (786-0 renal)?
A: The TGI was over 100 µM.

Q: What about the TGI (COLO 205 colon) of the same compound?
A: Its TGI is over 100 µM.

Q: What about the TGI (OVCAR-8 ovarian) of the same compound?
A: The TGI was over 100 µM.

Q: What about the TGI (NCI-H23 lung) of the same compound?
A: Its TGI is over 100 µM.

Q: And the TGI (NCI-H522 lung)?
A: The TGI was over 100 µM.

Q: And the TGI (A498 renal)?
A: The TGI was over 100 µM.

Q: What about the TGI (LOX IMVI melanoma) of the same compound?
A: Its TGI is over 100 µM.

Q: What about the TGI (UO-31 renal) of the same compound?
A: The TGI was over 100 µM.

Q: And the TGI (KM12 colon)?
A: The TGI was over 100 µM.

Q: And the TGI (SNB-75 CNS)?
A: Its TGI is over 100 µM.

Q: What about the TGI (CAKI-1 renal) of the same compound?
A: The TGI was over 100 µM.

Q: What about the TGI (SK-MEL-28 melanoma) of the same compound?
A: Its TGI is over 100 µM.

Q: And the TGI (MCF7 breast)?
A: Its TGI is over 100 µM.

Q: What about the TGI (SK-MEL-5 melanoma) of the same compound?
A: Its TGI is over 100 µM.

Q: And the TGI (UACC-257 melanoma)?
A: The TGI was over 100 µM.

Q: What about the TGI (MALME-3M melanoma) of the same compound?
A: Its TGI is over 100 µM.

Q: What about the TGI (OVCAR-5 ovarian) of the same compound?
A: The TGI was over 100 µM.

Q: What about the TGI (HCT-116 colon) of the same compound?
A: Its TGI is over 100 µM.

Q: What about the TGI (NCI-H226 lung) of the same compound?
A: The TGI was over 100 µM.

Q: With `Cc1ccc(C(=O)N/N=C(\N=Nc2cccc([N+](=O)[O-])c2)c2ccc(N(C)C)cc2)cc1` as the compound, how does the TGI (EKVX NSCLC) read?
A: The TGI was over 100 µM.

Q: And the TGI (OVCAR-3 ovarian)?
A: Its TGI is over 100 µM.

Q: What about the TGI (IGROV1 ovarian) of the same compound?
A: Its TGI is over 100 µM.

Q: What about the TGI (SN12C renal) of the same compound?
A: The TGI was over 100 µM.

Q: And the TGI (DU-145 prostate)?
A: Its TGI is 85.5 µM.

Q: What about the TGI (CCRF-CEM leukemia) of the same compound?
A: Its TGI is over 100 µM.

Q: And the TGI (MDA-MB-435)?
A: The TGI was over 100 µM.

Q: And the TGI (SF-295 CNS)?
A: Its TGI is over 100 µM.

Q: And the TGI (HCC-2998 colon)?
A: Its TGI is over 100 µM.

Q: What about the TGI (MOLT-4 leukemia) of the same compound?
A: Its TGI is over 100 µM.

Q: What about the TGI (SF-268 CNS) of the same compound?
A: Its TGI is over 100 µM.

Q: What about the TGI (SK-MEL-2 melanoma) of the same compound?
A: The TGI was over 100 µM.

Q: And the TGI (SF-539 CNS)?
A: Its TGI is over 100 µM.

Q: What about the TGI (K-562 leukemia) of the same compound?
A: The TGI was over 100 µM.

Q: And the TGI (PC-3 prostate)?
A: The TGI was over 100 µM.

Q: What about the TGI (HOP-92 NSCLC) of the same compound?
A: Its TGI is over 100 µM.

Q: And the TGI (NCI/ADR-RES ovarian)?
A: The TGI was over 100 µM.

Q: What about the TGI (HT29 colon) of the same compound?
A: Its TGI is over 100 µM.

Q: What about the TGI (TK-10 renal) of the same compound?
A: Its TGI is over 100 µM.

Q: And the TGI (HS 578T breast)?
A: Its TGI is over 100 µM.

Q: What about the TGI (RPMI-8226 leukemia) of the same compound?
A: The TGI was over 100 µM.

Q: What about the TGI (SW-620 colon) of the same compound?
A: The TGI was over 100 µM.

Q: What about the TGI (BT-549 breast) of the same compound?
A: The TGI was over 100 µM.

Q: What about the TGI (NCI-H460 lung) of the same compound?
A: Its TGI is over 100 µM.

Q: What about the TGI (MDA-MB-231 breast) of the same compound?
A: Its TGI is over 100 µM.

Q: What about the TGI (OVCAR-4 ovarian) of the same compound?
A: Its TGI is over 100 µM.

Q: What about the TGI (SNB-19 CNS) of the same compound?
A: Its TGI is over 100 µM.

Q: What about the TGI (U251 CNS) of the same compound?
A: The TGI was over 100 µM.

Q: And the TGI (MDA-N)?
A: The TGI was over 100 µM.

Q: What about the TGI (HCT-15 colon) of the same compound?
A: Its TGI is over 100 µM.

Q: What about the TGI (M14 melanoma) of the same compound?
A: Its TGI is over 100 µM.

Q: And the TGI (HL-60(TB) leukemia)?
A: Its TGI is over 100 µM.

Q: And the TGI (786-0 renal)?
A: Its TGI is over 100 µM.

Q: And the TGI (COLO 205 colon)?
A: The TGI was over 100 µM.

Q: What about the TGI (OVCAR-8 ovarian) of the same compound?
A: Its TGI is over 100 µM.

Q: What about the TGI (NCI-H23 lung) of the same compound?
A: The TGI was over 100 µM.

Q: What about the TGI (NCI-H522 lung) of the same compound?
A: Its TGI is over 100 µM.

Q: And the TGI (LOX IMVI melanoma)?
A: Its TGI is over 100 µM.

Q: What about the TGI (UO-31 renal) of the same compound?
A: Its TGI is over 100 µM.

Q: What about the TGI (A549 NSCLC) of the same compound?
A: Its TGI is over 100 µM.

Q: And the TGI (KM12 colon)?
A: The TGI was over 100 µM.

Q: What about the TGI (CAKI-1 renal) of the same compound?
A: Its TGI is over 100 µM.

Q: What about the TGI (SK-MEL-28 melanoma) of the same compound?
A: The TGI was over 100 µM.

Q: What about the TGI (MCF7 breast) of the same compound?
A: The TGI was over 100 µM.

Q: And the TGI (SK-MEL-5 melanoma)?
A: The TGI was over 100 µM.

Q: What about the TGI (UACC-257 melanoma) of the same compound?
A: Its TGI is over 100 µM.

Q: What about the TGI (OVCAR-5 ovarian) of the same compound?
A: Its TGI is over 100 µM.

Q: And the TGI (HCT-116 colon)?
A: Its TGI is over 100 µM.

Q: And the TGI (NCI-H226 lung)?
A: The TGI was over 100 µM.

— PubChem BioAssay (NCI)
